Columns and labels:
clinical [1] = details: human, in vivo; for Tmax / clearance / Vd / half-life: both sexes; for clearance: CL; for clearance / Vd: mean (CV %); for Vd: Vss; for half-life: t1/2, mean (CV %); for AUC higher in females compared to males / CL, mean (CV %) / Vss, mean (CV %) / t1/2, mean (CV %) / tmax, median (minimum, maximum): both
Method: This TQT study was a single-center, prospective, randomized, double-blind, double-dummy, placebo and active controlled, 4-way crossover study that evaluated a single therapeutic 1.5 g and a single supratherapeutic 4.5 g dose of ceftolozane/tazobactam compared with placebo. Moxifloxacin 400 mg, given orally, was used as a positive control. All subjects received study drug on 4 dosing days (Day 1, Day 5, Day 9, and Day 13) in a crossover fashion with a 3-day wash-out period between doses. Healthy men and women were randomized on a 1:1:1:1 basis to 1 of 4 dosing sequences.
Electrocardiograms were recorded (triplicate measurements) over 24 hours on Day 1, Day 5, Day 9, and Day 13 using a 12-lead Holter monitor. Blood samples for determination of ceftolozane, tazobactam, and the M1 metabolite of tazobactam levels were obtained at prespecified time intervals prior to and following each electrocardiogram (ECG) reading on dosing days. Plasma levels of ceftolozane, tazobactam, and its metabolite M1 were determined by LC/MS/MS assay.

[2] = subjects with normal renal function; cited from earlier work
[3] = Phase I studies: impact of renal function on PK and safety of ceftolozane/tazobactam; type: in vivo, human; details: for median AUC0-∞ increase vs normal renal function / median Cmax increase vs normal renal function: moderate renal impairment; for median AUC0-∞ increase vs dose-normalized exposure in normal renal function / median Cmax increase vs dose-normalized exposure in normal renal function: severe renal impairment
From the text: Male and female subjects, aged 18 to 79 years, with varying degrees of renal function were enrolled in two, prospective, open-label, phase I studies of intravenous ceftolozane/tazobactam. A total of 36 subjects were enrolled into cohorts based on degree of renal function: normal (n=11), mild impairment (n=6), moderate impairment (n=7), severe impairment (n=6), and ESRD on HD (n=6). To ensure subjects with ESRD were receiving effective HD, a target adequacy of HD calculated from the pre- and post-blood urea nitrogen ratios (Kt/V) of at least 1.2 for a minimum of 3 months prior to enrollment was required.
All cohorts received ceftolozane/tazobactam as an intravenous infusion over 1 h. The normal, mild, and moderate renal impairment cohorts received a single dose of ceftolozane/tazobactam 1,000 mg/500 mg; the severe renal impairment cohort received a single dose of ceftolozane/tazobactam 500 mg/250 mg; the ESRD cohort received a dose of ceftolozane/tazobactam 500 mg/250 mg initiated at the end of HD on day 1 and another dose initiated 2 h before HD on day 4. Subjects with ESRD underwent HD for 3 to 4 h using a high-flux membrane as scheduled; average dialysis flow rate was 600 to 800 ml/min. Revaclear hemodialyzers (Gambro, Stockholm, Sweden) were used in 5 subjects (ultrafiltration coefficient 50 to 60 ml/h/mmHg, high flux membrane of 1.4 to 1.8 m^2) and a CT 190G hemodialyzers (Baxter Healthcare, McGaw Park, Ill.) was used in 1 subject (ultrafiltration coefficient 36 ml/h/mmHg, high flux membrane of 1.9 m^2). The average blood flow rate was 400 to 600 ml/min with the exception of one subject with rates between 264 and 400 ml/min.
Plasma concentrations of ceftolozane and tazobactam were measured prior to, during, and following administration of ceftolozane/tazobactam. Blood samples were collected 30 min prior to administration, at the end of administration and at 5, 15, and 30 min and 1, 2, 3, 5, 7, 9, 11, 15, 25, and 35 h after completion of ceftolozane/tazobactam administration in the normal, mild, and moderate renal impairment cohorts. Severe renal impairment and ESRD cohorts off HD had samples taken 30 min prior to administration and at 0.5, 1, 1.5, 2, 3, 6, 9, 12, 24, 36, and 48 h after the start of administration. On the day of and following HD, the subjects with ESRD had samples taken 30 min prior to administration and at 0.5, 1, 1.5, 2, 3, 4, 5, 6, 9, 12, 24, 36, and 44 h after the start of the administration. The entire dialysate was collected at each of the following intervals: 0 to 1, 1 to 2, 2 to 3, and 3 h to the end of dialysis. Urine for PK analysis was obtained in the normal, mild, and moderate cohorts at 0 to 2, 2 to 4, 4 to 8, 8 to 12, 12 to 24, and 24 to 36 h after the start of ceftolozane/tazobactam administration. In the ESRD and severe renal impairment cohorts, urine was collected during the confinement period pre-dose, 0 to 24 h, and 24 to 48 h after the start of the administration, unless the subject was anuric. A validated LC/MS/MS method was utilized to analyze all plasma, urine, and dialysate samples for ceftolozane and tazobactam (MicroConstants Inc., San Diego, Calif.) (4). The lower limit of quantification (LLOQ) in plasma was 0.25 μg/ml for ceftolozane and 0.1 μg/ml for tazobactam. The assay was linear between 0.25 and 150 μg/ml for ceftolozane and between 0.1 and 50 μg/ml for tazobactam. […] The LLOQ in dialysate for both ceftolozane and tazobactam was 1 ng/ml and the assay was linear between 1 and 500 ng/ml. […] The LLOQ for ceftolozane and tazobactam in urine was 5 and 10 μg/ml, respectively, and the assay was linear between 5 and 5,000 μg/ml for ceftolozane and between 10 and 10,000 μg/ml for tazobactam.

clinical [4] = details: for Cmax: mean (CV %); for Tmax: median (minimum, maximum)
From the text: The intravenous formulation of CXA-201 can be prepared by reconstituting a fixed dose combination mixture of two active components (ceftolozane and tazobactam), and intravenously administering the reconstituted pharmaceutical composition. The pharmacokinetic (PK) profile of ceftolozane/tazobactam has been studied in several preclinical and clinical studies.
The pharmacokinetic (PK) profile of ceftolozane/tazobactam has been studied in several preclinical and clinical studies.

clinical [5] = details: human, in vivo, t1/2, geometric mean
Method: The extent of ceftolozane exposure increases with decreasing renal function. […] In subjects with moderate renal impairment, exposure approximately doubles relative to that in subjects with normal renal function.
For tazobactam, this estimated exposure from a dose of 125 mg in subjects with severe renal impairment not on hemodialysis is similar to that achieved with 500 mg tazobactam in subjects with normal renal function (23.8 μg·h/mL).

| SMILES | Tmax (clinical [1]) [h] | clearance (clinical [1]) [mL/min] | Vd (clinical [1]) [L] | half-life (clinical [1]) [h] | AUC higher in females compared to males (clinical [1]) [%] | CL, mean (CV %) (clinical [1]) | Vss, mean (CV %) (clinical [1]) | t1/2, mean (CV %) (clinical [1]) | tmax, median (minimum, maximum) (clinical [1]) | median daily steady-state AUC [2] [µg·h/mL] | median AUC0-∞ increase vs normal renal function [3] [fold] | median Cmax increase vs normal renal function [3] [fold] | median AUC0-∞ increase vs dose-normalized exposure in normal renal function [3] [fold] | median Cmax increase vs dose-normalized exposure in normal renal function [3] [fold] | half-life (clinical [5]) [h] | further results |
| --- | --- | --- | --- | --- | --- | --- | --- | --- | --- | --- | --- | --- | --- | --- | --- | --- |
| Cn1c(N)c(NC(=O)NCCN)c[n+]1CC1=C(C(=O)O)N2C(=O)[C@@H](NC(=O)/C(=N\OC(C)(C)C(=O)O)c3nsc(N)n3)[C@H]2SC1 [Ceftolozane, (6R,7R)-3-[(5-amino-4-{[(2-aminoethyl)carbamoyl]amino}-1-methyl-1H-pyrazol-2-ium-2-yl)methyl]-7-({(2Z)-2-(5-amino-1,2,4-thiadiazol-3-yl)-2-[(1-carboxy-1-methylethoxy)imino]acetyl}amino)-8-oxo-5-thia-1-azabicyclo[4.2.0]oct-2-ene-2-carboxylate] | 0.667 | 92.8 | 13.5 | 2.29 | 22 | 5.50 (17) L/h | 13.7 (20) L | 2.72 (21) h | 0.667 (0.667, 1.18) h | 690 | 2.5 | 1.2 | 4.4 | 1.3 | 5.85 | AUC(0-t) (clinical [4]; human, in vivo): 172 µg·h/mL; CL renal (clinical [4]; human, in vivo): 56.8 to 112 mL/min; Cmax, mean (CV %) (clinical [4]; human, in vivo): 74.4 (14) μg/mL; clearance (clinical [4]; human, in vivo): 68.3 to 112 mL/min; t1/2, mean (CV %) (clinical [4]; human, in vivo): 3.12 (22) h; tmax, median (minimum, maximum) (clinical [4]; human, in vivo): 1.07 (1.0, 1.1) h; Cmax (clinical [4]; human, in vivo): 69100 ng/mL; half-life (clinical [4]; human, in vivo, t1/2, mean (CV %)): 2.77 h; half-life (clinical [4]; human, in vivo, terminal elimination half-life (t1/2β)): ~2.5 h; Tmax (clinical [4]; human, in vivo): 1.02 h; excreted in the urine as unchanged parent drug (clinical [4]; male, human, in vivo, iv): greater than 95% |
| C[C@]1(Cn2ccnn2)[C@H](C(=O)O)N2C(=O)C[C@H]2S1(=O)=O [Tazobactam, tazobactam] | 0.667 | 368 | 18.2 | 0.87 | 19 | 21.2 (19) L/h | 19.3 (22) L | 1.05 (17) h | 0.667 (0.667, 1.17) h | 89.4 | 2.2 | 1.6 | 3.8 | 1.9 | 1.78 | excreted in the urine as the unchanged parent drug (clinical [4]; healthy volunteers): 80%; half-life (clinical [4]; human, in vivo, intravenous, terminal elimination half-life (t1/2β), healthy volunteers / normal renal function): ~1 h; AUC(0-t) (clinical [4]; human, plasma, intravenous, 1.5 g): 24.4 µg·h/mL; Cmax (clinical [4]; human, plasma, intravenous, 1.5 g, 1.5 g q8h 1-hour infusion, healthy adults, Day 1): 18400 ng/mL; Cmax (clinical [4]; human, plasma, intravenous, 1.5 g, 1.5 g q8h 1-hour infusion, healthy adults, Day 10): 18000 ng/mL; half-life (clinical [4]; human, plasma, intravenous, 1.5 g, t1/2, mean (CV %), 1.5 g q8h, healthy adults, Day 10): 1.03 h; Tmax (clinical [4]; human, plasma, intravenous, 1.5 g, 1.5 g q8h, healthy adults, Day 1): 1.02 h; half-life (clinical [4]; human, plasma, intravenous, terminal elimination half-life (t1/2β), healthy volunteers / normal renal function): ~1 h; excreted in the urine as unchanged parent drug (clinical [4]; single 1.5 g IV dose of CXA-201, healthy male adults): More than 80% |

— US10933053B2, “Treating infections with ceftolozane/tazobactam in subjects having impaired renal function” (MERCK SHARP & DOHME CORP., priority 2013, dated 2021)
